These results are taken from US20050261331A1, “Substituted pyrrolopyridines” (priority 2002, published 2005).

Structures can show the parent of a compound that is named as a salt.

Data set [1] deals with T1, recombinant human Itk kinase domain fused with GST (Homo sapiens, UniProt Q08881).
T1 construct: recombinant human Itk kinase domain fused with GST; made in house; host or cells: High Five insect cells
T1 sequence (Q08881 363-615 limits assumed): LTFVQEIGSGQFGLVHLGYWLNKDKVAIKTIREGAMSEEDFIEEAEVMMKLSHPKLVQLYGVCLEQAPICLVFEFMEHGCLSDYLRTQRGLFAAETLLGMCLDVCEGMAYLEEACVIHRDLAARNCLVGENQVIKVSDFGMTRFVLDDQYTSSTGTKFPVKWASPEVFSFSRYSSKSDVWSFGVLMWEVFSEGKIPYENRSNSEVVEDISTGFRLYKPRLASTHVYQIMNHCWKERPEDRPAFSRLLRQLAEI
Description: Itk LANCE TRF Assay. It is filed as biochemical. The note with it: 160 ng/well Itk, 2 μM peptide substrate, 50 μM ATP, 50 minutes RT; read-out: Inhibition of Kinase Itk (IC50 μM). How it is done:
The Itk kinase assay utilized recombinant human Itk kinase domain fused with GST (Glutathione S-Transferase). The protein was expressed in High five insect cells, purified in one step on an affinity chromatography glutathione column and stored in 50 mM Tris/HCl (pH 7.6), 150 mM NaCl, 5% (w/v) mannitol, 1 mM DTT, 30% glycerol at −70° C. The kinase substrate used in the assay was a biotinylated peptide derived from the Src-optimal substrate (Nair et al, J. Med. Chem., 38: 4276, 1995; biotin-AEEEIYGEFEAKKKK).
The assay additions were as follows: Test compounds (or controls; 1 μL in 100% DMSO) were added to black 96-well flat-bottomed plates (Greiner 655076) followed by 20 μL Itk in assay buffer and the reaction was started by adding 20 μL ATP and peptide substrate in assay buffer. The assay buffer constitution during phosphorylation was: 50 mM HEPES (pH 6.8), 10 mM MgCl2, 0.015% Brij 35, 1 mM DTT, 10% glycerol, 160 ng/well Itk, 2 μM peptide substrate and 50 μM ATP. The assay was stopped after 50 minutes (RT) by adding 150 μL ice-cold Stop solution (50 mM Tris/HCl, pH 7.5, 10 mM EDTA, 0.9% NaCl and 0.1% BSA) together with LANCE reagents (2 nM PT66-Eu^3+, Wallac AD0069 and 5 μg/ml Streptavidin-APC, Wallac AD0059. Both concentrations were final in stopped assay solution). The plates were measured on a Wallac 1420 Victor 2 instrument with TRF settings after 1 h incubation, and the ratio (665 signal/615 signal)*10000 was used to calculate the inhibition values. IC50 values were determined using XLfit.
(Time-resolved FRET reads energy transfer from a long-lived donor to a nearby acceptor.)

For the molecule `CN(C)CCCOc1ccc(-c2c(-c3ccco3)[nH]c3ncc(Br)cc23)cc1` [Example 5, 3-{4-[S-Bromo-2-(2-furyl)-1H-pyrrolo[2,3-b]pyridin-3-yl]phenoxy}-N,N-dimethylpropan-1-amine trifluoroacetate], the IC50 (as a rule, the point on the concentration scale where inhibition reaches its midpoint) in data set [1] was 0.01 µM.

As for `Brc1cnc2[nH]c(-c3ccccc3)c(-c3ccco3)c2c1` [Example 12, 5-Bromo-3-furan-2-yl-2-phenyl-1-H-pyrrolo[2,3-b]pyridine], the melting point – broadly, the temperature, or range, at which the solid turns liquid – is 105 to 107 °C.

`CC(=O)NCc1ccc(-c2c(-c3ccccc3)[nH]c3ncc(Br)cc23)o1` [Example 13, N-[5-(5-Bromo-2-phenyl-1-H-pyrrolo[2,3-b]pyridin-3-yl)-furan-2-ylmethyl]-acetamide] yielded a melting point of 176 to 176.5 °C. In data set [1], the IC50 was 0.03 µM. As to `N#Cc1cnc2[nH]c(-c3ccccc3)c(-c3ccc(N4CCOCC4)cc3)c2c1` [Example 44, 3-(4-Morpholin-4-ylphenyl)-2-phenyl-1H-pyrrolo[2,3-b]pyridine-5-carbonitrile], in data set [1], the IC50 worked out at 0.44 µM. The same measure, in the same setting: then `Cc1c(Br)cnc2[nH]c(-c3ccc(OCCCN(C)C)cc3)c(-c3cccnc3)c12` [Example 55, {3-[4-(5-Bromo-4-methyl-3-pyridin-3-yl-1H-pyrrolo[2,3-b]pyridin-2-yl)phenoxy]propyl}dimethylamine], with 0.01 µM. Same read-out and setting: then `CN(C)CCCN(C)c1ccc(-c2[nH]c3ncc(Cl)cc3c2-c2cncnc2)cn1` [Example 61, N-[5-(5-Chloro-3-pyrimidin-5-yl-1H-pyrrolo[2,3-b]pyridin-2-yl]-N,N′,N′-trimethylpropane-1,3-diaminetrihydrochloride], with 0.04 µM.
